Key:
AsPMT = AsPMT (Ascaris suum, UniProt F1L4B9); format: biochemical; conditions: for Selectivity index (SI) AsPMT: IC50^Cytotoxicity/IC50^Enzyme; for IC50: read-out: Mean IC50 ± SEM, Enzyme AsPMT;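 as to Selectivity index (SI) AsPMT: cytotoxicity IC50 measured in HCT-8 cells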
Protocol: The chemical compounds were obtained from the National Cancer Institute/Developmental Therapeutics Program Open Chemical Repository. […] Compounds were individually reconstituted in molecular biology grade dimethyl sulfoxide (DMSO) from Sigma-Aldrich to a stock concentration of 10 mM and stored at −20°C until use. Initial screening was conducted using recombinant HcPMT1 protein as enzyme in the methyltransferase assay, with test compounds at a final concentration of 40 μM. […] To the positive reaction mixture, instead of test compound, an equivalent volume of DMSO was added. In the negative-control reaction mixture, instead of HcPMT1 and test compound, equivalent volumes of 1× transferase buffer and DMSO, respectively, were added. Detection buffer (100 μL) containing fluorescence substrate was added into each reaction mixture. The reactions were prepared in triplicate wells in 96-well plates. The plates were covered in aluminum foil and incubated at room temperature with agitation for 30 min, followed by reading the fluorescence at 380EX/520EM. The mean percent inhibition (MPI) of the test compound on enzymatic activity was calculated using the following formula: MPI = ΔRFUpositive control − ΔRFUcompounds/ΔRFUpositive control × 100, where the positive control is a reaction without compound but with recombinant PMT protein and a volume of DMSO equivalent to that of compound used in test reactions; the negative control is the reaction without protein and compounds, but with volumes of dialysis buffer and DMSO equivalent to protein and compound added in the test reaction mixtures, respectively; ΔRFUpositive control represents the absolute relative fluorescence units (RFU) for the positive control, which equals RFUpositive control – RFUnegative control; and ΔRFUcompounds represents the absolute RFU value for the sample with the compounds, which equals RFUcompounds – RFUnegative control.
The enzymatic assay was set up as described above, with the respective PMT protein as enzyme.

[1] = test system: PMT-complemented mutant yeast; experiment: Growth inhibition of complemented yeast (statement on PMT-complemented strains together); format: cell-based, Saccharomyces cerevisiae; conditions: various concentrations
Protocol: To determine the effect of PMT inhibitors on the growth of PMT- and LacZ-complemented pem1Δpem2Δ S. cerevisiae, the yeast cells were first starved of choline as described above, and the cells were diluted to an OD600 of ~0.6. The PMT-complemented yeast cells were cultured in SG medium (3.4g/L yeast nitrogen base without amino acids, 2% galactose, 30 mg/L histidine, 100 mg/L leucine, 100 mg/L adenine, and 50 mg/L tryptophan) supplemented with 1 mM ethanolamine hydrochloride, while the LacZ-complemented yeast cells were cultured in SG medium supplemented with 1 mM choline chloride. Compounds that depicted cross-inhibitory activity against PMT proteins in vitro were added at various concentrations to the cultures. As a negative control, DMSO (at a final concentration not exceeding 2% [vol/vol]) was added to yeast cultures designated control cultures. The cultures were incubated at 30°C with shaking at 275 rpm for 4 days. On a daily basis during the course of culture, 200-μL portions of culture aliquots were taken, and their OD600s were measured using a microplate reader. In preliminary work, we had observed that the growth of PMT- and LacZ-complemented pem1Δpem2Δ S. cerevisiae plateaued at 3 to 4 days of culture. Therefore, to determine the inhibitory effect of nematode PMT inhibitors on the growth of PMT- and LacZ-complemented pem1Δpem2Δ S. cerevisiae, measurements taken on day 3 were used. The results were presented as percentage of growth rate using the following formula: PGR = growth rate (plus inhibitor)/growth rate (minus inhibitor) × 100 where the percent growth rate (PGR) is the growth rate of inhibitor-treated PMT- or LacZ- complemented Pem1Δpem2Δ S. cerevisiae, considering the growth rate of untreated PMT- or LacZ- complemented Pem1Δpem2Δ S. cerevisiae is 100%; the growth rate = ΔA600^Day 3/ΔA600^Day 0; ΔA600^Day 0 is the absolute value of A600 of PMT- or LacZ- complemented pem1Δ/pem2Δ S. cerevisiae at day 0, which equals the A600 of the culture minus the A600 of the growth medium only; ΔA600^Day 3 is the absolute value of the A600 of PMT- or LacZ complemented pem1Δ/pem2Δ S. cerevisiae at day 3, which equals the A600 of the culture at day 3 minus the A600 of growth medium only; the growth rate (plus inhibitor) is the growth rate of PMT- or -LacZ complemented pem1Δpem2Δ S. cerevisiae in the presence of test compound; and the growth rate (minus inhibitor) is the growth rate of the PMT- or LacZ complemented pem1Δ/pem2Δ S. cerevisiae in the absence of test compound, but with a volume of DMSO equal to that of compound added in the treated culture. The dose-response curves were generated with GraphPad Prism software and IC50 concentrations of the compounds in PMT- and LacZ-complemented yeast cells derived.

Chain of AsPMT (F1L4B9 entry or part of it): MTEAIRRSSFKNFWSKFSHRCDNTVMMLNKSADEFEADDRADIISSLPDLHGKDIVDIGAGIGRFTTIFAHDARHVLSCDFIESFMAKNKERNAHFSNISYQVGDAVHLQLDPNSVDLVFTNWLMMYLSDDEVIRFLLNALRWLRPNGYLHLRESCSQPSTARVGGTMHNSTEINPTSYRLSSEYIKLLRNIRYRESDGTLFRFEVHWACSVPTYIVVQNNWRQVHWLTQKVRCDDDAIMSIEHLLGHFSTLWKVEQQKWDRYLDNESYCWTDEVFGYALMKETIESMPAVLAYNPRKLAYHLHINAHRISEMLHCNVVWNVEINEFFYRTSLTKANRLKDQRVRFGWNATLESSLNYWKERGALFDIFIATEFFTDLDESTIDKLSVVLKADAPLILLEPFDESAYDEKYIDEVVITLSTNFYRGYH

Row | SMILES | Selectivity index (SI) AsPMT (AsPMT) | IC50 (AsPMT) | effect on the growth of PMT-complemented mutant yeast [1]
1 | CO[C@@H]1/C=C\O[C@]2(C)Oc3c(C)c(O)c4c(O)c(c(CN(C)C)c(O)c4c3C2=O)NC(=O)/C(C)=C\C=C[C@@H](C)[C@@H](O)[C@H](C)[C@@H](O)[C@H](C)[C@H](OC(C)=O)[C@@H]1C [NSC145612] | 6.67 | 45.3 ± 1.71 µM | concentration-dependent inhibitory effect
2 | CO[C@@]12[C@H](COC(N)=O)C3=C(C(=O)C(C)=C(N)C3=O)N1C[C@H]1[C@@H]2N1C (some centres unmarked) [NSC56410] | 3.24 | 58.1 ± 12.9 µM | concentration-dependent inhibitory effect
3 | CO[C@H]1/C=C/O[C@@]2(C)Oc3c(C)c(O)c4c(O)c(cc(O)c4c3C2=O)NC(=O)/C(C)=C\C=C\[C@H](C)[C@H](O)[C@@H](C)[C@@H](O)[C@@H](C)[C@H](OC(C)=O)[C@@H]1C [NSC133100] | 3.00 | 34 ± 2.85 µM | concentration-dependent inhibitory effect
4 | COc1ccc(-c2c(C)c(C(=O)O)nc(-c3ccc4c(O)c(OC)c5c(c4n3)=NC(C)(C)N=5)c2N)c(O)c1OC [NSC62709] | 6.75 | 44.3 ± 1.35 µM | concentration-dependent inhibitory effect
5 | O=c1c(O)cccc2cc(O)c(O)c(O)c12 [NSC35676, purpurogallin] | 45.59 | 12.4 ± 1.1 µM | concentration-dependent inhibitory effect
6 | COc1cc(C)c2c(c1C=O)Oc1c(c(C)c(O)c3c1C(O)OC3=O)OC2=O (centres unmarked) [NSC87511] | 0.97 | 177 ± 15.6 µM | concentration-dependent inhibitory effect
7 | CO[C@@H]1/C=C/O[C@@]2(C)Oc3c(C)c(O)c4c(c3C2=O)C(=N[C@@H]2CC[C@@H](O)O[C@H]2C)C=C(NC(=O)/C(C)=C\C(=O)[C@@H]2C[C@@H]2[C@H](O)[C@@H](C)[C@@H](O)[C@@H](C)[C@H](OC(C)=O)[C@@H]1C)C4=O [NSC177383] | 3.47 | 24.6 ± 1.79 µM | 
